Experimental findings from patent US9212204B2, “Treatment of rett syndrome using glycyl-L-2-methylprolyl-L-glutamic acid” (priority 2011, dated 2015) are described below.

Assay [1] concerns neurons in the CA3 region of the hippocampus. The assay is described as follows: Neuron soma size in the hippocampus. Type of assay: in vivo, mouse. As to the method: We also measure the effect of G-2-MePE treatment on neuron soma size in the hippocampus. Mice are treated with G-2-MePE as described above for locomotor activity.
Assay [2] has as its system ChAT-positive neurons in the striatum of 18-month old rats. The assay is described as follows: ChAT immunohistochemistry in striatum of aging rats. Particulars: single s.c. dose 0.012-12 mg/kg, 3 days after treatment. The format is in vivo, rat. On the procedure: In this experiment, we tested the effects of G-2-MePE on the number of ChAT-positive neurons in brains of 18-month old rats.
Eighteen-month old male rats received one of five treatments. A control group was treated with vehicle (saline alone (n=4) and four groups were treated with a single dose of G-2-MePE. Doses of 0.012 (n=4), 0.12 (n=5), 1.2 (ln=5) and 12 mg/kg (n=3), respectively, were given sub-cutaneously. Rats were sacrificed with an overdose of pentobarbital 3 days after drug treatment. Brains were perfused with normal saline and 4% paraformaldehyde and fixed in perfusion fixative overnight. Brains were stored in 25% sucrose in 0.1M PBS (pH7.4) until the tissue sank. Frozen coronal sections of striatum were cut with a microtome and stored in 0.1% sodium azide in 0.1M PBS at 4° C. Immunoreactivity for choline acetyltransferase (ChAT) was established by staining using a free floating section method. Briefly, antibodies were diluted in 1% goat serum. The sections were incubated in 0.2% triton in 0.1M PBS/Triton™ at 4° C. overnight before Immunohistochemical staining. The sections were pre-treated with 1% H2O2 in 50% methanol for 20 min. […]
The size of the striatal region used for the count was measured using an image analyser. […]
Data were analysed using a paired t-test and presented as mean+/−SEM.

Assay [3] relates to adult MeCP2+/- female mice. Description: Optical imaging of intrinsic signals, ocular dominance plasticity. Type of assay: in vivo, mouse. Particulars: monocularly deprived for 4 days, treated concurrently; aged P60 or more. As to the method:
For the survival measurements, the nocturnal activity analysis and the immunoblot analysis, G-2-MePE (synthesised Albany Molecular Research Inc. (Albany, N.Y.) and supplied by Neuren Pharmaceuticals Limited) is administered daily via intra-peritoneal injections (20 mg/kg, vehicle=saline, 0.01% BSA). The treatment starts at PI 5 and is maintained throughout the course of the experiments. For intracellular physiology experiments, the mice are injected daily with G-2-MePE (20 mg/kg body weight, vehicle=saline, 0.01% BSA) for 2 weeks, from P15 to P28-P32 when they are used for acute slice preparation. For optical imaging experiments, mice are injected with G-2-MePE (20 mg/kg body weight, vehicle=saline, 0.01% BSA) daily from the day of the lid suture to the day of imaging.
Adult (>P60) wild type (SVEV or BL6) and MeCP2 (+/−) mutant females (BL6) are used for this experiment. The wild type control group is composed of both wild type littermates of MeCP2+/− females or wild type age matched SVEV females. For monocular deprivation, animals are anesthetized with Avertin (0.016 ml/g) and the eyelids of one eye is sutured for 4 days. […] During the imaging session, the animal is constantly oxygenated, its temperature maintained with a heating blanket and the eyes periodically treated with silicone oil; physiological conditions are constantly monitored. […]

Structures are written as SMILES. Non-standard residues stand in square brackets, D forms with d. Residues, ends and D or L forms follow the SMILES beside them. αMeP = C[C@@]1(C(=O)O)CCCN1

As to `C[C@@]1(C(=O)N[C@@H](CCC(=O)O)C(=O)O)CCCN1C(=O)CN` [Example G-2-MePE, Glycyl-L-2-methylprolyl-L-glutamic acid] (H-Gly-[αMeP]-Glu-OH), in assay [1] (KO animals), the average soma size result is “increases”. Besides, the soma size entry in assay [1] (wild type animals) was “little or no effect”. Further, in assay [2], the “number of ChAT-immunopositive neurons” value is recorded as “increased”. The OD plasticity entry in assay [3] is “reduces”.
